Key:
alpha-Gal epitope [1] = test: inactivation test of alpha-Gal epitopes in samples of cow's milk (M86 antibody incubation, centrifugation, alpha-Gal/HSA ELISA); type: biochemical; details: 0.5% w/v, ambient temperature
Method: incubating samples of milk with the addition of an antibody aimed at the alpha-Gal epitope that is present in the milk; in such embodiment, the antibody is for example a murine monoclonal antibody M86; it should be understood that all mono- or polyclonal antibodies and/or antibodies belonging to different isotypes, which have shown a proven specificity against the antigen in question, can be used; in general, the anti-xenoantigen antibody is an antibody specifically aimed at the alpha-Gal epitope;
separating, by way of centrifugation, the resulting immune complex created owing to the bond between antigen and antibody;
preparing a plate with 96 wells for the E.L.I.S.A. text with coating comprising the xenoantigen epitope, i.e. an alpha-Gal/human serum albumin coating;
adding, in the wells, supernatant taken from the milk samples subjected to centrifuge; the supernatant contains the part of anti-alpha-Gal antibody that has not bonded with epitopes; as is known, a column of wells is adapted to define a reference value, known in the jargon as ‘blank value’, that corresponds to the maximum signal between antibody and epitopes,
completing the plate with a secondary antibody conjugated with an enzyme, or other molecule for qualitative or quantitative evaluation through colorimetric assay, adapted to chromatically highlight the presence if any of the anti-alpha-Gal antibody; in the present embodiment, the secondary antibody is constituted by a rabbit polyclonal anti-mouse antibody, conjugated with the peroxidase enzyme, or with other types, enzymatic or otherwise, capable of providing qualitative or quantitative indications through colorimetric assay;
reading the plate, determining the presence of anti-alpha-Gal antibody that has remained free in the solutions of the samples;
comparing the absorbance values detected in the column that defines the reference values with the values detected in the other columns of samples of the plate.
Two solutions are made up with different concentrations of phenylpropanoid, using the milk as solvent in a total volume of 50 ml. In this specific example, which obviously should be understood to be non-limiting of the invention, an extract of “Lippia Citriodora” was used, titrated at 93% verbascoside. […]
These solutions are left to act under moderate but constant stirring, for a total of […] at 25±5° C.
Samples are taken at 30±2 minutes, 1±0.1 hour and 3±0.1 hours.
An aliquot of milk is taken from each sampling, comprised between 200 ul and 500 ul, and preferably 300 ul, to which a buffer is added, Na3C6H5O7 0.2M at pH 7.0±0.5, until a final volume is reached comprised between 1000 ul and 1500 ul, and preferably a final volume of 1500 ul.
Then a murine antibody, directed against the alpha-Gal epitope, is added (in the present example this is an IgM clone called M86), at the preferable concentration of [1:50] w/v and the whole is incubated for 120±10 minutes at 37±2° C. under constant but moderate stirring.
At the end the samples are subjected to centrifugation at 10,000×g for 30±2 minutes at 4±2° C.
During incubation with the M86 antibody, a plate with 96 wells is prepared with 100 ul per well of alpha-Gal/HSA (Human Serum Albumin) at 5 ug/ml in a PBS buffer (pH 7.0±0.5).
The plate thus prepared is incubated for 60±10 minutes at a temperature comprised between 30° C.-40° C., although it is preferable to stabilize everything at 37° C.±2.0° C.
Then 3 washes are carried out with 300 ul per well of PBS (physiological pH) at ambient temperature.
The first wash is left to act for 5 minutes, the two subsequent washes for 3 minutes each.
The blocking is done with 300 ul per well of 2±0.5% of serum albumin in PBS, followed by covering the plate with protective film and incubation for 60±10 minutes at ambient temperature, in darkness.
Subsequently 3 washes are performed as above. […]

alpha-Gal epitope [2] = test: inactivation test of alpha-Gal epitopes in samples of milk substitutes based on rice and soya (M86 antibody incubation, centrifugation, alpha-Gal/HSA ELISA); type: biochemical; details: milk substitute based on rice and soya, caffeic acid 0.3% w/v (method: 0.5±0.05% w/v), ambient temperature
Method: Three solutions are made up, using a milk substitute based on rice and soya as solvent, for example a substitute comprising 17% rice, 17% soy seeds, in a total volume of 50 ml. In the present example, which is non-limiting of the invention, extracts of “Lippia citriodora” are used, titrated at 93% verbascoside. […] These solutions are left to act under moderate but constant stirring, for a total of 3±0.1 hours at 25±5° C. Samples are taken at 30±2 minutes, 1±0.1 hour and 3±0.1 hours. An aliquot of milk is taken from each sampling, comprised between 200 and 500 ul, and preferably a dose of 300 ul, to which a buffer is added, Na3C6H5O7 at pH 7.0±0.5, until a final volume is reached comprised between 1000 and 1500 ul, and preferably a final volume of 1500 ul. Then a murine antibody, directed against the alpha-Gal epitope, is added, for example an IgM clone called M86, at the preferable concentration of [1:50] w/v and the whole is incubated for 120±10 minutes at 37±2° C. under constant but moderate stirring. At the end the samples are subjected to centrifugation at 10,000×g for 30±2 minutes at 4±2° C. During incubation with the M86 antibody, a plate with 96 wells is prepared with 100 ul per well of alpha-Gal/HSA (Human Serum Albumin) at 5 ug/ml in a PBS buffer (pH 7.0±0.5). The plate thus prepared is incubated for 60±10 minutes at a temperature comprised between 30° C.-40° C., although it is preferable to stabilize everything at 37±2.0° C. Then 3 washes are carried out with 300 ul per well of PBS (physiological pH) at ambient temperature. The first wash is left to act for 5 minutes, the two subsequent washes for 3 minutes each. […] Then 50 ul per well of the stop solution is added, which is constituted by H2SO4 2M and the plate is then read in a plate reader at the wavelength of 450 nm. The test of inactivation is based on the comparison between the absorbance values of column number 1 which constitutes the blank value (100% of antibody available) and the respective columns of the samples. […]

SMILES | antigens inactivated (alpha-Gal epitope [1]; after 30 minutes) [%] | antigens inactivated (alpha-Gal epitope [1]; after 1 hour) [%] | antigens inactivated (alpha-Gal epitope [1]; after 3 hours of incubation) [%] | antigens inactivated (alpha-Gal epitope [2]; after 30 minutes) [%] | antigens inactivated (alpha-Gal epitope [2]; after 1 hour) [%] | antigens inactivated (alpha-Gal epitope [2]; after 3 hours of incubation) [%]
O=C(OC[C@H]1O[C@@H](OC(=O)c2cc(O)c(O)c(OC(=O)c3cc(O)c(O)c(O)c3)c2)[C@H](OC(=O)c2cc(O)c(O)c(OC(=O)c3cc(O)c(O)c(O)c3)c2)[C@@H](OC(=O)c2cc(O)c(O)c(OC(=O)c3cc(O)c(O)c(O)c3)c2)[C@@H]1OC(=O)c1cc(O)c(O)c(OC(=O)c2cc(O)c(O)c(O)c2)c1)c1cc(O)c(O)c(OC(=O)c2cc(O)c(O)c(O)c2)c1 [tannic acid] | 67.7±7.1 | 71.8±2.2 | 80.6±1.8 | – | – | –
O=C(O)/C=C/c1ccc(O)c(O)c1 [caffeic acid] | 51.2±4.2 | 61.1±2.6 | 72.3±2.8 | 61.8±2.8 | 78.3±4.1 | 89.2±1.8
